Assay results as given in patent US20160139132A1, “Method of Diagnosis or Prognosis of a Neoplasm Comprising Determining the Level of Expression of a Protein in Stromal Cells Adjacent to the Neoplasm” (Thomas Jefferson University, priority 2009, published 2016).

Experiments:
[1] = system: MDA-MB-231 breast cancer cells co-injected with Cav-1-deficient stromal fibroblasts; assay: Human tumor xenograft: nude mice co-injected with MDA-MB-231 cells and Cav-1-deficient stromal fibroblasts, treated with glycolysis inhibitors; format: in vivo; conditions: given individually, dosage of 200 mg/kg
Experimental: Treatment with Glycolysis Inhibitors Functionally Blocks Cancer-Associated Fibroblast Induced Breast Cancer Tumor Growth. […] Mice co-injected with Cav-1-deficient stromal fibroblasts and MDA-MB-231 breast cancer cells were treated with glycolysis inhibitors. The efficacy of two well-established glycolysis inhibitors, namely 2-DG (2-deoxy-D-glucose) and DCA (dichloro-acetate), individually or in combination were tested.
To provide additional experimental validation for the idea that an absence of stromal Cav-1 promotes breast cancer tumor growth and angiogenesis, a 2-component cell-system using xenografts in immuno-deficient female nude mice was developed. Briefly, the flanks of nude mice were injected with a mixture of 1) MDA-MB-231 cells (a highly aggressive human breast cancer cell line; 1.0×10-6 cells) and 2) stromal fibroblasts, derived from either WT or Cav-1 (−/−) null mice (0.3×10-6 cells). After 3 weeks, nude mice were sacrificed and breast cancer-derived tumors were subjected to analysis for growth (tumor weight and volume measurements) and immuno-histochemistry with markers of angiogenesis, such as CD31 (a.k.a, PECAM1).
In this two-component system, nude mice are co-injected with i) human breast cancer ceils (MDA-MB-231), and ii) stromal fibroblasts (WT versus Cav-1 (−/−) deficient). […]

[2] = system: neovascularization; conditions: Oikawa (1988); cited from earlier work
[3] = system: Cav-1 in stromal fibroblasts co-cultured with MCF-7 cells; assay: Co-culture of MCF-7 breast cancer cells with normal human fibroblasts: Cav-1 down-regulation; format: cell-based; conditions: co-culture with MCF-7 cells
Excerpt: Using this system, it was observed that within 5 days of co-culture MCF-7 cells down-regulate the expression of Cav-1 in adjacent stromal fibroblasts. This occurs via the degradation of Cav-1 in lysosomal structures, and can be inhibited by chloroquine, an anti-lysomal agent. Most importantly, MCF-7 cells induce oxidative stress in the adjacent fibroblasts via the over-production of reactive oxygen species (ROS). ROS, in turn, is known to stabilize and activate certain transcription factors, such as NFkB and HIF. NFkB- and HIF-are the master regulators of “inflammation” and “hypoxia/aerobic glycolysis” in the tumor microenvironment. Thus, in order to detect the activation of NFkB and HIF only in the fibroblast cell population, two different fibroblast cell lines engineered to express either a NFkB-luciferase or HIF-luciferase transcriptional reporter were used. […] As such, NFkB is activated first, while HIF is activated on day 4 and day 5 of coculture, coincident with Cav-1 down-regulation. Thus, cancer cells induce the Warburg effect in adjacent stromal fibroblasts via the activation of NFkB and HIF-target genes, leading to inflammation and aerobic glycolysis. These findings provide a mechanistic basis for the “Reverse Warburg Effect”, and a new high-throughput drug-screening assay for the identification of novel compounds that block the “Reverse Warburg Effect”.

[4] = system: breast cancer patients; assay: Progression-free survival of breast cancer patients (tissue microarray cohort) by stromal Cav-1 and tamoxifen use; format: in vivo, human; conditions: Tamoxifen use Yes vs No (ref); adjusted for T stage, N stage, Cav-1 score
Experimental: Breast tissues for tissue microarray construction were obtained from the Surgical Pathology files at the University of Michigan with Institutional Review Board (IRB) approval. The TMA contained tissues derived from 154 largely consecutive patients with invasive carcinomas of the breast, with follow-up information treated at the University of Michigan from 1987-1991. Clinical and pathological variables were determined following well-established criteria. All invasive carcinomas were graded according to the method described by Elston and Ellis 17; Lymphovascular Invasion (LV1) was classified as either present or absent. […]
Cav-1 expression in the tumor stroma was assessed by employing a standard immuno-peroxidase method (DakoCytornation LSAB2 System-HRP, Carpinteria, Calif.), using rabbit polyclonal antl-Cav-1 TgG (N-20; directed against Ntenninal residues 2-21 of human Cav-1; Santa Cruz Biotechnology, Santa Cruz, Calif.; dilution 1:500). The staining was scored semi-quantitatively as negative (0; no staining), weak (1; either diffuse weak staining or strong staining in less than 30% of stromal cells per core) and strong (2; defined as strong staining of 30% or more of the stromal cells). […]
For each patient, the date of breast cancer diagnosis, date of last follow-up, vital status at last follow-up, causes of death (breast cancer or other), and breast cancer recurrence, were recorded. […]

[5] = system: PD-ECGF/TP transfected cells; conditions: transfected compared with untransfected wild-type cells; Haraguchi (1993); cited from earlier work

Q: With `O=C(O)C(Cl)Cl` [DCA, dichloro-acetate] as the compound, how does the “effect on tumor growth” value [1] read?
A: Its value is “no effect”.

Q: For `O=CC[C@@H](O)[C@H](O)[C@H](O)CO` [2-DG, 2-deoxy-D-glucose], which “effect on tumor growth” value [1] is on record?
A: The value was “no effect”.

Q: For `CC(=O)O[C@]1(C(C)=O)CC[C@H]2[C@@H]3C[C@H](C)C4=CC(=O)CC[C@]4(C)[C@H]3CC[C@@]21C` [MPA, medroxyprogesterone acetate], which neovascularization [2] is on record?
A: The neovascularization was “potently inhibited”.

Q: With `CCN(CC)CCCC(C)Nc1ccnc2cc(Cl)ccc12` (stereo not drawn) [chloroquine] as the compound, how does the “degradation of Cav-1 in lysosomal structures (Cav-1 down-regulation in adjacent stromal fibroblasts)” value [3] read?
A: The value was “inhibited”.

Q: Which “Cox regression of Progression-Free Survival (PFS): Coefficient” value [4] does the source give for `CC/C(=C(\c1ccccc1)c1ccc(OCCN(C)C)cc1)c1ccccc1` [Tamoxifen] here?
A: Its value is −0.476.

Q: For `C[C@H]1O[C@@H](n2cc(F)c(=O)[nH]c2=O)[C@H](O)[C@@H]1O` [5′DFUR, 5′-deoxy-5-fluorouridine], which antitumor effect [5] is on record?
A: Its antitumor effect is “dramatic enhancement of antitumor effect”.
